Test results: patent US20060263802A1 (priority 2003, published 2006)

Key:
Assay type in all cases: binding
[1] = tested on: human monoclonal antibody CRJB
[2] = tested on: human monoclonal antibody CR57
[3] = tested on: human monoclonal antibody CRJA
[4] = tested on: human monoclonal antibody CRJB; remark: listed apart in the source
[5] = tested on: human monoclonal antibody CR57; remark: listed apart in the source
[6] = tested on: human monoclonal antibody CRJA; remark: listed apart in the source

Sequence | Binding of CRJB to linear peptide (PEPSCAN-ELISA signal) [1] | Binding of CR57 to linear peptide (PEPSCAN-ELISA signal) [2] | Binding of CRJA to linear peptide (PEPSCAN-ELISA signal) [3] | Binding of CRJB (10 μg/ml) to looped/cyclic peptide (PEPSCAN-ELISA) [4] | Binding of CR57 (10 μg/ml) to looped/cyclic peptide (PEPSCAN-ELISA) [5] | Binding of CRJA (10 μg/ml) to looped/cyclic peptide (PEPSCAN-ELISA) [6] | Binding of human monoclonal antibody CRJB to linear peptide (PEPSCAN-ELISA signal) [1] | Binding of human monoclonal antibody CR57 to linear peptide (PEPSCAN-ELISA signal) [2] | Binding of human monoclonal antibody CRJA to linear peptide (PEPSCAN-ELISA signal) [3] | Binding of CRJB to looped/cyclic peptide (PEPSCAN-ELISA signal) [4] | Binding of CR57 to looped/cyclic peptide (PEPSCAN-ELISA signal) [5] | Binding of CRJA to looped/cyclic peptide (PEPSCAN-ELISA signal) [6] | Binding of CRJB (10 μg/ml) to looped/cyclic peptide (PEPSCAN-ELISA signal) [4] | Binding of CR57 (10 μg/ml) to looped/cyclic peptide (PEPSCAN-ELISA signal) [5] | Binding of CRJA (10 μg/ml) to looped/cyclic peptide (PEPSCAN-ELISA signal) [6]
KREECLDALESIMTT | 113 | 102 | 83 | 64 | 137 | 100 | – | – | – | – | – | – | – | – | –
AEDFVEVHLPDVHNQ | – | – | – | – | – | – | 138 | 123 | 114 | 90 | 117 | 101 | – | – | –
MAGDPRYEESLHNPY | 116 | 64 | 71 | – | – | – | – | – | – | – | – | – | 62 | 65 | 71
CSGVAVSSTYCSTNH | 165 | 110 | 106 | – | – | – | – | – | – | – | – | – | 90 | 94 | 94
DQLVNLHDFRSDEIE | 117 | 54 | 88 | 27 | 46 | 63 | – | – | – | – | – | – | – | – | –
FRRLSHLRKLVPGFG | 108 | 90 | 106 | 54 | 128 | 111 | – | – | – | – | – | – | – | – | –
MSCDIFTNSRGKRAS | 110 | 46 | 71 | – | – | – | – | – | – | – | – | – | 73 | 71 | 49
PEMQSSLLQQHMELL | 133 | 62 | 79 | 82 | 72 | 78 | – | – | – | – | – | – | – | – | –
MELKVGYILAIKMNG | 141 | 76 | 92 | – | – | – | – | – | – | – | – | – | 93 | 71 | 66
NKTLMEADAHYKSVR | 116 | 104 | 94 | 97 | 120 | 98 | – | – | – | – | – | – | – | – | –
TILDKLGPWSPIDIH | 96 | 76 | 84 | – | – | – | – | – | – | – | – | – | 60 | 85 | 86
FVGYVTTTFKRKHFR | 111 | 70 | 79 | – | – | – | – | – | – | – | – | – | 82 | 117 | 102
